Where two headings read alike, the source gives them in different places.
Legend:
[1] = set-up: method as in PMID 27417650; details: mouse brain; cited from earlier work
[2] = test system: sEH; set-up: method as in PMID 27417650; details: self-blockade experiments; cited from earlier work
[3] = Baboon [^18F]FNDP dynamic PET, baseline scans with kinetic modelling (2TCM, 1TCM, Logan); assay type: in vivo, baboon (Papio anubis); details: male, baboon (Papio anubis), intravenous, baseline, mean ± SD of 3 baboons
Description: (§1) PET images were acquired using a CPS/CTI high-resolution research tomograph (HRRT), which has an axial resolution (FWHM) of 2.4 mm and in-plane resolution of 2.4–2.8 mm. […] These blocking studies were performed 27 to 43 days apart from each other to ensure full animal recovery. The animals had no food for 12 h prior to each PET study. Anesthesia was induced with intramuscular ketamine (7.5–10 mg/kg) and maintained with a continuous intravenous infusion of propofol at 0.3–0.4 mg/kg/min throughout the PET experiment. One venous catheter was inserted for the radioligand injection, and one arterial catheter was inserted to obtain arterial blood samples. Baboons were intubated to facilitate respiration, and circulatory volume was maintained by constant infusion of isotonic saline. Physiological vital signs including heart rate, blood pressure, electrocardiogram, and oxygen saturation were monitored continuously throughout the study.
The animals were positioned in the PET scanner with the head immobilized using a thermoplastic mask. A 6-min transmission scan was acquired using a rotating ^137Cesium source for generating attenuation maps. The 90-min dynamic PET acquisition was then started in three-dimensional list mode simultaneously with an intravenous bolus injection of [^18F]FNDP. […]
Measurement of the arterial plasma input function was conducted through collection of ~ 40 blood samples over the course of the 90-min dynamic PET study. […] Samples were then centrifuged at 1200 × g, and the plasma radioactivity was measured with a cross-calibrated PerkinElmer Wizard 2480 automatic gamma counter.
The 90 min of PET data were binned into 30 frames: four 15-s, four 30-s, three 1-min, two 2-min, five 4 -min, and 12 5-min frames. Images were reconstructed using the 3D iterative ordered subset expectation maximization (OS-EM) algorithm (with six iterations and 16 subsets) with correction for radioactive decay, deadtime, attenuation, scatter, and randoms. The reconstructed image space consisted of cubic voxels, each 1.22 mm^3 in size, and spanning dimensions of 31 cm × 31 cm (transaxially) and 25 cm (axially).
The software package PMOD (v3.7, PMOD Technologies Ltd, Zurich, Switzerland) was used for the image processing and subsequent kinetic analysis. The previously acquired T1-weighted brain MRI images for the baboon were co-registered to the reconstructed dynamic PET images acquired in this study. Through manually matching the co-registered MRI to the INIA19 Template and NeuroMaps Atlas for Primate Brain Image Parcellation and Spatial Normalization, 13 representative baboon brain volumes of interest (VOIs) were defined, […] Regional time activity curves (TACs) were then generated for both baseline and blocking PET scans using those VOIs.
(§2) Next, kinetic modeling was performed based on the TACs and the metabolite-corrected arterial plasma input functions. For brain uptake, the primary outcome measure was the regional brain distribution volume (VT) of [^18F]FNDP, defined as concentration of the radiotracer in regional tissue relative to that in blood at equilibrium. We evaluated which compartmental models (e.g., two-tissue-three-compartment (2TCM) or one-tissue-two-compartment (1TCM)) best described the [^18F]FNDP PET data, using statistical model selection criteria, such as the Akaike information criterion. For comparison, the Logan graphical method (t* = 30 min) was also used to compute regional VT, as well as generating voxel-wise parametric images of VT [31].

[4] = Murine radiometabolite analysis (blood and brain) by RP-HPLC; assay type: in vivo, CD-1 mice
Description: Male CD-1 mice (25–26 g) were injected via the lateral tail vein with 37 MBq of high specific activity (1.1 TBq/μmol or 29.7 Ci/μmol) [^18F]FNDP. The mice were sacrificed by cervical dislocation at 10 and 30 min after injection, and a terminal blood sample was obtained. The mouse brains were rapidly removed, homogenized in 2 mL of ACN:H2O 50%–50% (vol) with 0.06 M ammonium formate to extract parent tracer and radiometabolites, centrifuged at 20,000 g at 4 °C. Resulting supernatants were analyzed by reverse-phase (RP)-HPLC.

[5] = test system: soluble epoxide hydrolase (sEH); assay: Baboon [^18F]FNDP PET, dose-escalation blocking with AR-9281 (Lassen plot, occupancy); assay type: in vivo, baboon (Papio anubis)
Description: as §1
The animals were positioned in the PET scanner with the head immobilized using a thermoplastic mask. […] The 90-min dynamic PET acquisition was then started in three-dimensional list mode simultaneously with an intravenous bolus injection of [^18F]FNDP. […]
as §2
For blocking studies, occupancy of sEH by FNDP was calculated using regional VT values as Eq 1 Occupancy=ΔVT/VTBaseline−VND,
where VND, the distribution volume of non-displaceable radioligand, was obtained from the Lassen plot, i.e., using a scatterplot of ΔVT (i.e., baseline VT minus post-blocking VT) versus baseline VT of all regions. […] When that condition was satisfied, VND was given as the intercept of the regression line with the X-axis. The non-displaceable binding potential (BPND) was computed as VT /VND − 1.

[6] = set-up: method as in PMID 27417650; details: baboon brain; cited from earlier work

## O=C(NCCC(c1ccccc1)c1ccccc1)c1ccc([18F])nc1 [[^18F]FNDP, N-(3,3-diphenylpropyl)-6-^18F-fluoronicotinamide]
[1]
  brain uptake, injected dose per gram of tissue: 5 % ID/g
[2]
  binding specificity for sEH: ~ 95%
[3]; brain: amygdala, Amygdala, read-out: 1TCM VT
  Kp: 10.5 ± 0.81
[3]; brain: amygdala, Amygdala, read-out: 2TCM VT
  Kp: 12.5 ± 2.47
[3]; brain: amygdala, Amygdala, read-out: Logan VT
  Kp: 12 ± 1.63
[3]; brain: caudate, Caudate, read-out: 1TCM VT
  Kp: 12.9 ± 1.44
[3]; brain: caudate, Caudate, read-out: 2TCM VT
  Kp: 13.9 ± 2.28
[3]; brain: caudate, Caudate, read-out: Logan VT
  Kp: 13.3 ± 1.94
[3]; brain: cerebellum, Cerebellum, read-out: Logan VT
  Kp: 7.63 ± 0.58
[3]; brain: hippocampus, Hippocampus, read-out: 1TCM VT
  Kp: 10.3 ± 1.55
[3]; brain: hippocampus, Hippocampus, read-out: 2TCM VT
  Kp: 11.5 ± 2.61
[3]; brain: hippocampus, Hippocampus, read-out: Logan VT
  Kp: 11 ± 1.96
[3]; brain: hypothalamus, Hypothalamus, read-out: 1TCM VT
  Kp: 7.77 ± 0.35
[3]; brain: hypothalamus, Hypothalamus, read-out: 2TCM VT
  Kp: 8.32 ± 0.57
[3]; brain: hypothalamus, Hypothalamus, read-out: Logan VT
  Kp: 8.08 ± 0.44
[3]; brain: insula, Insula, read-out: 1TCM VT
  Kp: 12.1 ± 1.08
[3]; brain: insula, Insula, read-out: 2TCM VT
  Kp: 13.8 ± 1.42
[3]; brain: insula, Insula, read-out: Logan VT
  Kp: 12.8 ± 1.32
[3]; brain: putamen, Putamen, read-out: 1TCM VT
  Kp: 12.9 ± 1.54
[3]; brain: putamen, Putamen, read-out: 2TCM VT
  Kp: 13.8 ± 2.27
[3]; brain: putamen, Putamen, read-out: Logan VT
  Kp: 13.3 ± 1.81
[3]; brain: temporal gyrus, Temporal gyrus, read-out: 1TCM VT
  Kp: 9.05 ± 0.41
[3]; brain: temporal gyrus, Temporal gyrus, read-out: 2TCM VT
  Kp: 9.77 ± 1.02
[3]; brain: thalamus, Thalamus, read-out: 1TCM VT
  Kp: 7.42 ± 0.36
[3]; brain: thalamus, Thalamus, read-out: 2TCM VT
  Kp: 7.9 ± 0.74
[3]; brain: thalamus, Thalamus, read-out: Logan VT
  Kp: 7.87 ± 0.55
[4]; Mouse blood (10 min)
  fraction of radioactivity by HPLC (Met-1, Met-2, parent): 63.4 ± 4.4%
[4]; Mouse blood (30 min)
  fraction of radioactivity by HPLC (Met-1, Met-2, parent): 50.1 ± 10.5%
[4]; Mouse brain (10 min)
  fraction of radioactivity by HPLC (Met-1, Met-2, parent): 99.2 ± 0.3%
[4]; Mouse brain (30 min)
  fraction of radioactivity by HPLC (Met-1, Met-2, parent): 98.3 ± 0.3%
[5]; 0.02-mg/kg AR-9281 blocking scan, Baboon3
  K1 (2TCM): 0.170 ± 0.021 mL/cm^3/min
[5]; 0.1-mg/kg AR-9281 blocking scan, Baboon3
  K1 (2TCM): 0.179 ± 0.026 mL/cm^3/min
[5]; 1-mg/kg AR-9281 blocking scan, Baboon3
  K1 (2TCM): 0.166 ± 0.032 mL/cm^3/min
[5]; Lassen plot, AR-9281 blocking scans, Baboon3
  VND (distribution volume of non-displaceable radioligand): 0.865 ± 0.066 mL/mL
[5]; baboon brain
  specific binding (binding specificity): 91.70 ± 1.74%
[5]; male, baboon (Papio anubis), brain, intravenous, read-out: high-dose blocking VT
  total distribution volume (VT): 1 ± 0.09
[6]
  brain uptake, standardized uptake value (SUV): 4

— paper PMC7310027, “PET imaging of soluble epoxide hydrolase in non-human primate brain with [^18F]FNDP” (EJNMMI Research, 2020)
